Here are results for 14 compounds from patent US9193689B2, “3-aryl-5-substituted-isoquinolin-1-one compounds and their therapeutic use” (INSTITUTE OF CANCER RESEARCH: ROYAL CANCER HOSPITAL (THE), priority 2012, dated 2015).

Usually IC50 stands for the concentration that gives 50% inhibition.

Like-named read-outs stand apart in the source and are kept apart here.

In one experiment the test system is DLD1 cells. Briefly: Long-Term Clonogenic Assay (DLD1 cells). In kind it is cell-based. The procedure:
Clonogenic Inhibition in DLD1 or HT55 Cells
In order to determine the efficacy of chronic dosing of putative TNKS inhibitors, long term clonogenic or ‘colony formation’ assays were carried out. This included the sparse seeding of cells in a 6-well dish followed by continuous dosing of cells over 12-14 days (depending on relative cell growth). Appropriate cell lines (DLD1 or HT55) were seeded at 500 cells/well in a 6-well dish in DMEM supplemented with FBS. […] Dosages were carried out in triplicate. Cell media containing compound or DMSO only was replenished every 48 hours. Termination of the assay included the fixation of cells with trichlororacetic acid (1 mL, 10% (v/v), Sigma Aldrich, cat. no. T6399) and incubation for 16 hours at 4° C. Fixed cells were then washed with water, allowed to dry and stained with sulforhodamine B solution (sulforhodamine B 0.05% (w/v), Sigma Aldrich cat. no. S1402, acetic acid 1% (v/v), Fisher Scientific, cat. no. A/0400/PB17)) for 12 hours at room temperature. The stain was then removed and the cells washed copiously with aqueous acetic acid (1% v/v) and allowed to dry.
The data was normalised to the DMSO control and was expressed as surviving fraction as a function of inhibitor dose.

Experiment [1] concerns Axin1 protein levels in DLD1 cells. The experiment in a line: Western Blotting for Direct and Downstream Targets of TNKS Inhibitors: Axin 1.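 Also: compound exposure 20 to 22 hours before lysis.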 In kind it is cell-based. The procedure:
DLD1 cells were assayed for the effect of putative Tankyrase1/2 inhibitors on TNKS1/2, Axin1/2 and β-catenin protein levels. […] Reduction of nuclear accumulation of β-catenin and ultimately, reduction of β-catenin/TCF/LEF transcriptional activation of Wnt target genes should correlate with loss of Wnt-luc reporter signal in the Wnt reporter assay.
DLD1 cells were seeded in a 6-well dish at 10000 cells/well in DMEM supplemented with 10% FBS. […] After washing in TBS-T, the membrane was probed with a species specific secondary antibody conjugated to HRP (1:5000, Pierce/ThermoFisher), washed again in TBS-T and reacted with chemiluminescent detection reagents (ECL, GE Healthcare, cat. no. RPN2109) followed by exposure to X-ray film (FujiFilm XR).
In general terms: Immunoblotting shows a protein as a band on a membrane.

Experiment [2] concerns TNKS stabilisation in HeLa, HT1080, HTC75 cells.
Description: Cells were seeded, dosed and whole cell lysates were isolated and western blotted as described above. Primary antibodies included TNKS (1:1000, Santa Cruz Biotech, cat. no. SC8377).
The next experiment deals with TNKS1 (Homo sapiens, UniProt O95271). The experiment in a line: TNKS1/PARP Biochemical Assay (TNKS1).
The subject of experiment [3] is Wnt activity in DLD1-Wnt-Luc cells. The experiment in a line: Wnt-Luciferase Reporter Assay. (In a reporter assay the amount or activity of a reporter protein is the signal.)
Where [4] appears, read: read-out: Wnt IC50, DLD1-Wnt-Luc cells.

As to `CN1CCN(c2ccc(-c3cc4c(Cl)cccc4c(=O)[nH]3)cn2)CC1` [IQ-002-1], the “Clonogenic SF50 (DLD1)” value with DLD1 cells was below 2 µM. Besides, the “stabilize Axin1 (Western blotting)” value in experiment [1] was “stabilize Axin1”. Besides, the “stabilize TNKS (Western blotting)” value in experiment [2] was “stabilize TNKS”. The compound further showed a half-inhibitory concentration (IC50) on TNKS1 below 50 nM.

`Cc1cccc2c(=O)[nH]c(-c3ccc(N4CCN(C)CC4)nc3)cc12` [IQ-003]: in the experiment on DLD1 cells, the “Clonogenic SF50 (DLD1)” value was below 2 µM. Also, the “stabilize Axin1 (Western blotting)” value in experiment [1] was “stabilize Axin1”. In addition, the IC50 in experiment [3] (read-out: Wnt IC50) is 12 nM; on TNKS1, 21 nM. Besides, in experiment [2], the “stabilize TNKS (Western blotting)” value was “stabilize TNKS”.

On to `O=c1[nH]c(-c2ccc(N3CCNCC3)nc2)cc2c(Cl)cccc12` [IQ-027], for which the “stabilize Axin1 (Western blotting)” value in experiment [1] is on record as “stabilize Axin1”. Also, the “stabilize TNKS (Western blotting)” value in experiment [2] is “stabilize TNKS”. Moreover, the IC50 at TNKS1 was below 50 nM.

With `Cc1cccc2c(=O)[nH]c(-c3ccc(CN4CCCC4)cc3)cc12` [IQ-036], in experiment [1], the “stabilize Axin1 (Western blotting)” value was “stabilize Axin1”. Besides, the “stabilize TNKS (Western blotting)” value in experiment [2] is reported as “stabilize TNKS”. This compound also returned an IC50 against TNKS1 below 50 nM.

`Cc1cccc2c(=O)[nH]c(-c3ccc(CN4CCCCC4)cc3)cc12` [IQ-037]: in experiment [1], the “stabilize Axin1 (Western blotting)” value is given as “stabilize Axin1”. For the same compound, the “stabilize TNKS (Western blotting)” value in experiment [2] is recorded as “stabilize TNKS”. The half-inhibitory concentration (IC50) on TNKS1 was below 50 nM.

Regarding `Cc1cccc2c(=O)[nH]c(-c3ccc(CN4CCN(C)CC4)cc3)cc12` [IQ-038], the “Clonogenic SF50 (DLD1)” value in the experiment on DLD1 cells was below 2 µM. The “stabilize TNKS (Western blotting)” value in experiment [2] was “stabilize TNKS”.

Regarding `Cc1cccc2c(=O)[nH]c(-c3ccc(CN4CCC(N(C)C)CC4)cc3)cc12` [IQ-053], the “stabilize TNKS (Western blotting)” value in experiment [2] is “stabilize TNKS”.

Regarding `Cc1cccc2c(=O)[nH]c(-c3ccc(C(=O)N(C)C4CCN(C)CC4)cc3)cc12` [IQ-100, N-Methyl-4-(5-methyl-1-oxo-1,2-dihydro-isoquinolin-3-yl)-N-(1-methyl-piperidin-4-yl)-benzamide], the “stabilize Axin1 (Western blotting)” value in experiment [1] is reported as “stabilize Axin1”. The “stabilize TNKS (Western blotting)” value in experiment [2] was “stabilize TNKS”. Further, at TNKS1, the IC50 is below 20 nM.

In the case of `COCCN1CCN(C(=O)c2ccc(-c3cc4c(C)cccc4c(=O)[nH]3)cc2)CC1` [IQ-102], the “Clonogenic SF50 (DLD1)” value in the experiment on DLD1 cells is below 2 µM. Besides, the “stabilize Axin1 (Western blotting)” value in experiment [1] is “stabilize Axin1”. Also, the “stabilize TNKS (Western blotting)” value in experiment [2] was “stabilize TNKS”. The IC50 against TNKS1 was below 20 nM.

On to `CNCCOc1ccc(-c2cc3c(C)cccc3c(=O)[nH]2)cc1` [IQ-127, 5-Methyl-3-[4-(2-methylamino-ethoxy)-phenyl]-2H-isoquinolin-1-one], for which the “Clonogenic SF50 (DLD1)” value in the experiment with DLD1 cells was below 2 µM. Also, in experiment [1], the “stabilize Axin1 (Western blotting)” value is “stabilize Axin1”. The “stabilize TNKS (Western blotting)” value in experiment [2] is reported as “stabilize TNKS”. At TNKS1, this compound registered an IC50 below 50 nM.

In the case of `CN(C)CCOc1ccc(-c2cc3c(F)cccc3c(=O)[nH]2)cc1` [IQ-129], the “Clonogenic SF50 (DLD1)” value with DLD1 cells is below 2 µM. Further, the IC50 was below 5000 nM in experiment [3] (setting [4]) and below 50 nM against TNKS1.

As to `Cc1cccc2c(=O)[nH]c(-c3ccc(OCCN(C)C)cc3)cc12` [IQ-130], in experiment [1], the “stabilize Axin1 (Western blotting)” value was “stabilize Axin1”. Further, the IC50 was determined as 165 nM in experiment [3] (read-out: Wnt IC50) and 16 nM at TNKS1. The “stabilize TNKS (Western blotting)” value in experiment [2] is reported as “stabilize TNKS”.

Take `Cc1cccc2c(=O)[nH]c(-c3ccc(OCCN4CCOCC4)cc3)cc12` [IQ-133]: in experiment [1], the “stabilize Axin1 (Western blotting)” value is listed as “stabilize Axin1”. In addition, the “stabilize TNKS (Western blotting)” value in experiment [2] was “stabilize TNKS”. This compound also displayed an IC50 on TNKS1 below 500 nM.

For the compound `CC(C)(C)OC(=O)N1CCN(Cc2ccc(-c3cc4c(Br)cccc4c(=O)[nH]3)cc2)CC1` [IQ-149, 4-[4-(5-Bromo-1-oxo-1,2-dihydro-isoquinolin-3-yl)-benzyl]-piperazine-1-carboxylic acid tert-butyl ester], in the experiment with DLD1 cells, the “Clonogenic SF50 (DLD1)” value is below 2 µM. Also, the IC50 is below 5000 nM in experiment [3] (setting [4]) and below 50 nM against TNKS1.
